# According to patent publication US6376510B1, “Neuromuscular relaxants” (Newlaxant LLC, priority 1997, dated 2002):
# Read-outs that look alike come from different tables or passages of the source.
# Tests used:
# [1] = tested on: anesthetized rats (evoked responses of anterior tibial muscle); assay: In vivo neuromuscular block and cardiovascular side effects, anesthetized rat (Example 8, Table 3); conditions: for RI (recovery index): spontaneous recovery, 25-75% neuromuscular response; for Onset: time to 80-85% neuromuscular block
# Text: The neuromuscular blocking activity and other effects (e.g. cardiovascular side effects) of selected agents were investigated on several different experimental animals. Justification for this approach lies in the commonly known fact that the pharmacodynamic and pharmacokinetic properties of these agents are markedly variable from species to species. Therefore, the most important aspects of the projected therapeutic utility of these agents, e.g., neuromuscular blocking potency, onset and duration of action, and side effects cannot be ascertained in “in vitro” preparations or by using only one species of animals.
# a) Adult, male albino rats were anesthetized with pentobarbital injected intraperitoneally. The trachea was cannulated for artificial respiration via a small animal respirator. The carotid artery was cannulated for recording blood pressure via a transducer and heart rate by a cardiotachograph on a polygraph. One external jugular vein was cannulated for i.v. drug administration. Neuromuscular function was monitored by electromyography, recording evoked responses from the anterior tibial muscle as a result of supramaximal nerve stimuli consisting of single or “train-of-four” rectangular pulses of 0.1-0.2 msec duration every 10-12 seconds, delivered to the sciatic or common peroneal nerve by a laboratory nerve stimulator. Another mode of stimulation included repeated single stimuli delivered at 0.1 Hz or 1 Hz. […] The agents were dissolved in physiologic saline and injected intravenously at appropriate time intervals. The intensity, onset, and duration of neuromuscular block and its type were determined with each agent. Through administering several doses, the doses corresponding to 50%, 80% and 90% neuromuscular block were determined. All agents were compared with selected standard neuromuscular blocking compounds, e.g. succinylcholine, pancuronium, mivacurium, or rocuronium.
# Onset=time in minutes to 80-85% neuromuscular block.
# RI=recovery index, minutes, spontaneous recovery, 25-75% neuromuscular response.
# VB=vagal block, %, at 80-85% neuromuscular blocking dose.
# ΔHR=change in heart rate, %, at 80-85% neuromuscular blocking dose.
# ΔBP=change in arterial blood pressure, %, at 80-85% neuromuscular blocking dose.
# [2] = tested on: anesthetized juvenile pigs; assay: animal or person; assay type: in vivo; conditions: pig; for ED50: Sus scrofa, intravenous dose causing 50% neuromuscular block, read-out: ED50; for VB (vagal block) / ΔBP (change in arterial blood pressure) / ΔH (change in heart rate): at 80-85% neuromuscular blocking dose; for RI (recovery index): spontaneous recovery, 25-75% neuromuscular response; for Onset: time to 80-85% neuromuscular block
# Text: Both electromyographic and mechanomyographic responses can be quantified.
# The techniques described under a) and b) were employed in other species as needed with the modification that juvenile pigs were initially anesthetized with inhalation of halothane (Table 5) and monkeys were initially sedated with intramuscular ketamine injections prior to inducing and maintaining general anesthesia using pentobarbital and propofol administered intravenously (Table 6).
# rabbits = assay: In vivo neuromuscular block and cardiovascular side effects, rabbit (Example 8, Table 7); conditions: for ED50: intravenous dose causing 50% neuromuscular block; for RI (recovery index): spontaneous recovery, 25-75% neuromuscular response; for Onset: time to 80-85% neuromuscular block
# [3] = rat, at 80-85% neuromuscular blocking dose
# [4] = Oryctolagus cuniculus, read-out: ED50
# [5] = at 80-85% neuromuscular blocking dose
# [6] = rat, intravenous dose causing 50% neuromuscular block
SMILES,"ED50 ([1]; Rattus norvegicus, iv) [mg/kg]","VB (vagal block) [1, 3] [%]","ΔBP (change in arterial blood pressure) [1, 3] [%]","ΔH (change in heart rate) [1, 3] [%]",RI (recovery index) ([1]; rat) [min],Onset ([1]; rat) [min],ED50 (rabbits; [4]) [mg/kg],ΔBP (change in arterial blood pressure) (rabbits; [5]) [%],ΔH (change in heart rate) (rabbits; [5]) [%],RI (recovery index) (rabbits) [min],Onset (rabbits) [min],other results
"C[N+]1(Cc2ccccc2)[C@@H]2CC[C@H]1C[C@@H](OC(=O)CCCC(=O)O[C@H]1C[C@H]3CC[C@@H](C1)[N+]3(C)Cc1ccccc1)C2.[Br-].[Br-] (stereo partly drawn) [bis[N-benzyltropanium-3α-yl]glutarate dibromide, reference compound]",5.5,100,−10,0,3.7,2.5,–,–,–,–,–,–
"COc1cc(C[N+]2(C)[C@@H]3CC[C@H]2C[C@@H](OC(=O)CCCCCCCCCC(=O)O[C@H]2C[C@H]4CC[C@@H](C2)[N+]4(C)Cc2cc(OC)c(OC(C)=O)c(OC)c2)C3)cc(OC)c1OC(C)=O.[Br-].[Br-] (stereo partly drawn) [bis[N-(4-acetoxy-3,5-dimethoxybenzyl)tropanium-3α-yl]1,9-nonanedicarboxylate dibromide]",0.5,99,0,0,0.5,0.4,0.5,0,0,0.35,0.35,ED50 [2]: 0.6 mg/kg; VB (vagal block) [2]: 90%; ΔBP (change in arterial blood pressure) [2]: 0%; ΔH (change in heart rate) [2]: 0%; RI (recovery index) [2]: 1.2 min; Onset [2]: 0.5 min
"COc1cc(C[N+]2(C)[C@@H]3CC[C@H]2C[C@@H](OC(=O)C2CCC2C(=O)O[C@H]2C[C@H]4CC[C@@H](C2)[N+]4(C)Cc2cc(OC)c(OC(C)=O)c(OC)c2)C3)cc(OC)c1OC(C)=O.[Br-].[Br-] (stereo partly drawn) [bis[N-(4-acetoxy-3,5-dimethoxybenzyl)tropanium-3α-yl]cyclobutane-1,2-dicarboxylate dibromide]",0.367,20,0,0,0.45,0.4,0.298,0,0,0.55,0.5,–
"C[N+]1(Cc2ccccc2Br)[C@@H]2CC[C@H]1C[C@@H](OC(=O)CCCC(=O)O[C@H]1C[C@H]3CC[C@@H](C1)[N+]3(C)Cc1ccccc1Br)C2.[Br-].[Br-] (stereo partly drawn) [bis[N-(2-bromobenzyl)tropanium-3α-yl]glutarate dibromide, reference compound]",1.4,100,−9,0,3.6,2.3,–,–,–,–,–,–
"COc1ccc(OC)c(C[N+]2(C)C3CCC2CC(OC(=O)C2C4C=CC(C4)C2C(=O)OC2CC4CCC(C2)[N+]4(C)Cc2cc(OC)ccc2OC)C3)c1.[Br-].[Br-] (stereo not drawn) [bis[N-(2,5-dimethoxybenzyl)tropanium-3α-yl]trans-3,6-endomethylene-1,2,3,6-tetrahydrophthalate dibromide]",–,32,0,0,1.9,1,–,–,–,9,4,"ED50 [1, 6]: 0.057 mg/kg; ΔBP (change in arterial blood pressure) (rabbits; in vivo): 0%; ΔH (change in heart rate) (rabbits; in vivo): 0%; ED50 (rabbits): 0.01 mg/kg"
"C[N+]1(Cc2ccccc2)[C@@H]2CC[C@H]1C[C@@H](OC(=O)CCCCCCCCC(=O)O[C@H]1C[C@H]3CC[C@@H](C1)[N+]3(C)Cc1ccccc1)C2.[Br-].[Br-] (stereo partly drawn) [bis[N-benzyltropanium-3α-yl]sebacate dibromide, reference compound]",–,–,–,–,–,–,0.075,0,0,6,2.3,–
"CCCCC[N+]1(C)[C@@H]2CC[C@H]1C[C@@H](OC(=O)CCCCCCCCC(=O)O[C@H]1C[C@H]3CC[C@@H](C1)[N+]3(C)CCCCC)C2.[Br-].[Br-] (stereo partly drawn) [bis[N-(pentyl)tropanium-3α-yl]sebacate dibromide, reference compound]",–,–,–,–,–,–,–,–,–,–,–,ED50 [2]: 0.3 mg/kg; VB (vagal block) [2]: 50%; ΔBP (change in arterial blood pressure) [2]: 0%; ΔH (change in heart rate) [2]: 0%; RI (recovery index) [2]: 6.9 min; Onset [2]: 2.00 min
"C[N+]1(C)[C@@H]2CC[C@H]1C[C@@H](OC(=O)CCCC(=O)O[C@H]1C[C@H]3CC[C@@H](C1)[N+]3(C)C)C2.[I-].[I-] [bis[N-methyltropanium-3α-yl]glutarate diiodide, reference compound]",2,100,0,0,4.2,1.2,–,–,–,–,–,–
"COc1cc(C[N+]23CCC(CC2)C(OC(=O)[C@@H]2[C@@H](C(=O)OC4C[N+]5(Cc6ccc(OC(C)=O)c(OC)c6)CCC4CC5)[C@H]4C=C[C@@H]2C4)C3)ccc1OC(C)=O.[Br-].[Br-] (relative stereo) [bis[N-(4-acetoxy-3-methoxybenzyl)quinuclidinium-3-yl]trans-3,6-endomethylene-1,2,3,6-tetrahydrophthalate dibromide]",–,–,–,–,3,1.8,–,–,–,4.5,2.8,"VB (vagal block) ([1]; rat, in vivo): 70%; ΔBP (change in arterial blood pressure) ([1]; rat, in vivo): −10%; ΔH (change in heart rate) ([1]; rat, in vivo): −5%; ED50 [1, 6]: 2 mg/kg; ΔBP (change in arterial blood pressure) (rabbits; in vivo): 0%; ΔH (change in heart rate) (rabbits; in vivo): 0%; ED50 (rabbits): 0.115 mg/kg"
"C[N+]1(CC=Cc2ccccc2)[C@@H]2CC[C@H]1C[C@@H](OC(=O)CCCCCCCCCCC(=O)O[C@H]1C[C@H]3CC[C@@H](C1)[N+]3(C)CC=Cc1ccccc1)C2.[Br-].[Br-] (stereo partly drawn) [bis[N-(3-(phenyl)prop-2-enyl)tropanium-3α-yl]1,10-decanedicarboxylate dibromide, reference compound]",–,–,–,–,–,–,–,–,–,–,–,ED50 [2]: 0.17 mg/kg; VB (vagal block) [2]: 27%; ΔBP (change in arterial blood pressure) [2]: −10%; ΔH (change in heart rate) [2]: 0%; RI (recovery index) [2]: 6.4 min; Onset [2]: 1.60 min
"CC[N+]1(C)[C@@H]2CC[C@H]1C[C@@H](OC(=O)CCCCC(=O)O[C@H]1C[C@H]3CC[C@@H](C1)[N+]3(C)CC)C2.[I-].[I-] (stereo partly drawn) [bis[N-ethyltropanium-3α-yl]adipate diiodide, reference compound]",–,–,–,–,–,–,0.15,0,0,9,2.2,–
